In ChEMBL document CHEMBL5230099, “Free radical scavengers: An overview on heterocyclic advances and medicinal prospects” (Eur J Med Chem, 2020):
In brackets after ≈: the same amount, converted by molar mass.

Assay: Antioxidant activity assessed as BHT equivalent of DPPH radical scavenging activity
Type: functional
Conditions: not given

Compound | Activity [mg]
O=C(CCc1ccc(O)cc1)c1c(O)cc(O[C@@H]2O[C@H](CO)[C@@H](O)[C@H](O)[C@H]2O)cc1O | 0.89
O=C(CCc1ccc(O)cc1)c1c(O)cc(O)cc1O | 1.27

Assay: Antioxidant activity assessed as DPPH radical scavenging activity by measuring inhibition rate relative to control
Type: functional
Set-up: concentration or dose not given beside the values
Conditions: dose or concentration not given here

Compound | inhibition [%]
CSc1nc2nc(N/N=C/c3cccnc3)c3ccccc3n2n1 | 65
C=CCNC(=S)NNc1nc2nc(SC)nn2c2ccccc12 | 91
CSc1nc2nc(N/N=C(\C)c3ccc([N+](=O)[O-])cc3)c3ccccc3n2n1 | 78
CSc1nc2nc(NNC(=S)NC3CCCCC3)c3ccccc3n2n1 | 91.2
CSc1nc2nc(NN)c3ccccc3n2n1 | 85.9

Assay: Antioxidant activity assessed as trolox equivalent of DPPH radical scavenging activity
Type: functional
Conditions: not given

Compound | Activity [µmol/g]
O=C(N/N=C/c1cc(O)ccc1O)c1cc2ccccc2[nH]1 | 9960
COc1cccc(/C=N/NC(=O)c2cc3ccccc3[nH]2)c1O | 38.7
O=C(N/N=C/c1ccccc1O)c1cc2ccccc2[nH]1 | 8.71
O=C(N/N=C/c1cc(Br)ccc1O)c1cc2ccccc2[nH]1 | 14.2
O=C(N/N=C/c1c(O)cc(O)cc1O)c1cc2ccccc2[nH]1 | 4190
O=C(N/N=C/c1ccc(O)cc1O)c1cc2ccccc2[nH]1 | 2000
O=C(N/N=C/c1ccc(O)c(O)c1O)c1cc2ccccc2[nH]1 | 12800

Assay: Antioxidant activity by ORAC-FL method
Type: functional
Set-up: reference not given here
Conditions: not given

Compound | Activity [µmol]
O=c1c2cccc(C(F)(F)F)c2[se]n1-c1ccc2cccc(O)c2n1 | 0.3
O=c1c2cccc(F)c2[se]n1-c1ccc2cccc(O)c2n1 | 3.6
O=c1c2c(C(F)(F)F)cccc2[se]n1-c1ccc2cccc(O)c2n1 | 0.2
O=c1c2c(F)cccc2[se]n1-c1ccc2cccc(O)c2n1 | 2.3
O=c1c2cccc(Cl)c2[se]n1-c1ccc2cccc(O)c2n1 | 0.9

Assay: Antioxidant activity assessed as DPPH radical scavenging activity at 1 mg/ml incubated for 30 mins relative to control
Type: functional
Conditions: not given

Compound | Activity [%]
COc1cc2c(Nc3ccc(O)cc3)c([N+](=O)[O-])cnc2cc1OCCCN1CCC(C)CC1 | 84

Assay: Antioxidant activity assessed as DPPH radical scavenging activity at 0.25 mg/ml incubated for 30 mins relative to control
Type: functional
Conditions: not given

Compound | Activity [%]
COc1cc2c(Nc3ccc(O)cc3)c([N+](=O)[O-])cnc2cc1OCCCN1CCC(C)CC1 | 36

Assay: Antioxidant activity assessed as DPPH radical scavenging activity
Type: functional
Conditions: not given

Compound | EC50 [mg/L] | IC50 [mg/L]
O=C(/C=C/c1ccc(O)c(O)c1)O[C@@H]1C[C@@](O)(C(=O)O)C[C@@H](O)[C@@H]1O | 13.4 (≈ 37.8 µM) | 
O=C(/C=C/c1ccc(O)c(O)c1)O[C@@H]1C[C@](O)(C(=O)O)C[C@@H](O)[C@H]1O [CHLOROGENIC ACID] | 13.8 (≈ 38.9 µM) | 
COc1ccc(-c2nn(-c3ccccc3)cc2/C=C2\SC(=O)N(Cc3ccccc3)C2=O)cc1 |  | 127.18
COC(=O)c1c2c(c3ccccc3c1O)OC(C)(C)C=C2 [MOLLUGIN] |  | 0.7
O=C(O)CN1C(=O)S/C(=C\c2cn(-c3ccccc3)nc2-c2ccccc2)C1=O |  | 128.55
COC(=O)c1c(O)c2ccccc2c2occc12 [FUROMOLLUGIN] |  | 100
O=C(c1ccc(O)c(O)c1)c1cc(O)c(Br)cc1O |  | 16.44
CNc1cc(/C=C/c2cc(/C=C/c3ccc(OCC(N)=O)c(OC)c3)[nH]n2)ccc1OCC(N)=O |  | 20
O=C(O)/C=C/c1ccc(O)c(O)c1 [CAFFEIC ACID] |  | 0.8
CC1(C)C=Cc2c(C(=O)O)c(O)c3ccccc3c2O1 |  | 42.5
O=C(c1ccccc1)c1ccc(O)cc1Br |  | 19.24
O=C(/C=C/c1ccc(O)c(O)c1)O[C@H](Cc1ccc(O)c(O)c1)C(=O)O [ROSMARINIC ACID] |  | 0.4
Oc1ccc(Cc2cc(O)c(Br)cc2O)cc1 |  | 13.86
COc1cc(/C=C/C(=O)CC(=O)/C=C/c2ccc(O)c(OC)c2)ccc1O [CURCUMIN] |  | 28
O=C(c1cc(O)c(O)c(O)c1)c1cc(O)c(Br)cc1O |  | 14.43
O=C1S/C(=C\c2cn(-c3ccccc3)nc2-c2ccc(O)cc2)C(=O)N1Cc1ccccc1 |  | 110.88
Oc1cc(Cc2ccccc2)c(O)cc1Br |  | 13.32
C[C@H]1O[C@H](O[C@H]2[C@H](O)[C@@H](O)[C@@H](O[C@H]3[C@H](O)[C@@H](O)C(O)O[C@@H]3CO)O[C@@H]2CO)[C@H](O)[C@@H](O)[C@@H]1N[C@H]1C=C(CO)[C@@H](O)[C@H](O)[C@H]1O (some centres not stated) [ACARBOSE] |  | 81.12

Same assay, conditions: read-out: IC50

Compound | IC50 [µM]
O=C(O)C1CS[C@@H](c2cccc(Cl)c2Cl)N1 (some centres not stated) | 0.93
Cc1ccc([C@H]2NC(C(=O)O)CS2)cc1 (some centres not stated) | 1.22
COc1ccccc1[C@H]1NC(C(=O)O)CS1 (some centres not stated) | 1.5
O=C(O)C1CS[C@@H](c2cccc(F)c2F)N1 (some centres not stated) | 0.83
O=C(O)C1CS[C@@H](c2ccccc2)N1 (some centres not stated) | 1.54
O=C(O)C1CS[C@@H](c2cccc(Cl)c2)N1 (some centres not stated) | 1.52

Assay: Antioxidant activity assessed as ABTS-radical scavenging activity measured upto 6 mins
Type: functional
Conditions: not given

Compound | Activity [µg/mL]
O=C(/C=C/c1ccc(/C=C/C(=O)c2ccc3c(c2)OCO3)cc1)c1ccc2c(c1)OCO2 | 220
O=C(/C=C/c1ccc(/C=C/C(=O)c2ccc(Oc3ccccc3)cc2)cc1)c1ccc(Oc2ccccc2)cc1 | 174

Assay: Antioxidant activity assessed as DPPH radical scavenging activity incubated for 30 mins under dark condition
Type: functional
Conditions: not given

Compound | IC50 [mg/L]
CCn1c(-n2cc(/C=N/N=c3/scc(-c4ccc(Br)cc4)n3-c3ccccc3)c(-c3ccc(OC)cc3)n2)nc2c1c(=O)n(C)c(=O)n2C | 4.89 (≈ 6.64 µM)
CCn1c(-n2cc(/C=N/N=c3\[nH]c(-c4ccc(Br)cc4)cs3)c(-c3ccc(Cl)cc3)n2)nc2c1c(=O)n(C)c(=O)n2C | 5.71 (≈ 8.59 µM)
CCn1c(-n2cc(/C=N/NC(N)=S)c(-c3ccc(Cl)cc3)n2)nc2c1c(=O)n(C)c(=O)n2C | 10.24 (≈ 21.1 µM)

Assay: Antioxidant activity assessed as DPPH radical scavenging activity by measuring inhibition rate at 60 ug/ml incubated for 50 mins in dark by UV-Vis spectrophotometric analysis relative to control
Type: functional
Conditions: dose 60.0 µg/ml

Compound | inhibition [%]
Oc1ccc(-c2nc3ccc(N4CCOCC4)cc3[nH]2)cc1O | 77
COc1cc(-c2nc3ccc(N4CCN(C)CC4)cc3[nH]2)ccc1O | 63.6
COc1cc(-c2nc3ccc(N4CCOCC4)cc3[nH]2)ccc1O | 76.1
CN1CCN(c2ccc3nc(-c4ccc(O)c(O)c4)[nH]c3c2)CC1 | 76.8

Assay: Antioxidant activity assessed as trolox equivalent of ABTS-radical scavenging activity
Type: functional
Conditions: not given

Compound | Activity [µmol/g]
Cc1cc(N2CCN(c3cccc(C4CC(=O)c5ccccc5O4)c3)CC2)nc(-c2ccccc2O)n1 (configuration not stated) | 369
COc1ccc2c(=O)cc(-c3ccc(N4CCN(c5nc6ccccc6s5)CC4)cc3)oc2c1 | 317
O=C1CC(c2cccc(N3CCN(c4nc5ccccc5s4)CC3)c2)Oc2ccccc21 (configuration not stated) | 464
